{
  "source": "patent US20060003989A1",
  "about": "“Compositions and methods using acetylcholinesterase (ACE) inhibitors to treat central nervous system (CNS) disorders in mammals” (priority 2002, published 2006)",
  "key": {"cholinesterase": {"test_system": "cholinesterase", "conditions": "in rats; cited from earlier work"}, "[1]": {"assay": "Solubility test in purified water (concentration by HPLC)"}, "[2]": {"conditions": "cited from earlier work"}, "[3]": {"assay": "Intranasal vs oral galantamine PK in canine subject (plasma, CSF)", "conditions": "dog, 0.8 mg/kg; for Tmax: plasma"}, "ferrets": {"test_system": "ferrets", "assay": "Emetic response assay in ferrets", "conditions": "observed for 4 hours", "description": "• 8 naïve ferrets/dosing group; Nasal versus Oral • Emetic Response Assay • The assay was based on a validated method. Ferrets were monitored and observed for episodes of retching and/or vomiting for 4 hours. • Two formulations dosed: • Emetic Response Assay • The assay was based on a validated method."}, "[4]": {"assay": "Intranasal vs oral galantamine PK (plasma) in ferrets"}, "[5]": {"assay": "Rivastigmine intranasal vs oral PK in rats (CSF and plasma)", "conditions": "single intranasal dose", "protocol": "The formulation is administered intranasally or by gastric insertion of a capsule containing the commercial formulation to 12 groups of 6 rats prepped with an indwelling jugular cannula and heparin lock. […] Subsequently, each subject undergoes lumbar puncture with local anaesthesia (xylocalne s.c.), with the retrieval of 50 uL of cerebralspinal fluid (CSF). A paired blood sample from each animal is collected. By assigning groups to different timepoints, the whole PK curve can be assembled. The first CSF sample is collected 5 minutes post dosing and subsequent samples were collected at 20, 50, 75, 100 and 400 minutes.\nCSF samples are frozen until analysis."}, "[6]": {"test_system": "in vitro epithelial tissue model", "assay": "TER in in vitro epithelial tissue model with PN159 and galantamine lactate", "format": "cell-based", "conditions": "25, 50, 100 μM PN159 in the presence of 40 mg/ml galantamine lactate; controls applied apically"}},
  "note": "Several values for one entry are separate records, joined by “and”; a condition that tells them apart may be missing. Identical values can stand only once. Counter-ions that a name gives are not always drawn.",
  "data": [
    {"molecule": "O=C(CCC1CCN(Cc2ccccc2)CC1)c1ccc2c(c1)NCCCC2", "note": "[TAK-147, 3-[1-(phenylmethyl)-4-piperidinyl]-1-(2,3,4,5-tetrahydro-1H-1-benzazepin-8-yl)-1-propanone]", "values": [
      {"measurement": "minimal therapeutic concentration (MTC)", "setting": "cholinesterase", "result": 1.1, "unit": "nmol/gm"}
    ]},
    {"molecule": "COc1ccc2c3c1O[C@H]1C[C@@H](O)C=C[C@@]31CCN(C)C2.O=C(O)[C@H](O)[C@@H](O)[C@H](O)[C@H](O)CO", "note": "[galantamine gluconate]", "values": [
      {"measurement": "solubility in water", "setting": "[1]", "result": "~1390", "unit": "mM"}
    ]},
    {"molecule": "COc1ccc2c3c1O[C@H]1C[C@@H](O)C=C[C@@]31CCN(C)C2", "note": "[galantamine hydrobromide]", "values": [
      {"measurement": "generally reported solubility in water", "setting": "[2]", "result": 50, "unit": "mM"},
      {"measurement": "solubility", "setting": "[1]; purified water, thermodynamic from solid", "result": "~35000 µg/mL and ~121000 µM"}
    ]},
    {"molecule": "CC(O)C(=O)O.COc1ccc2c3c1O[C@H]1C[C@@H](O)C=C[C@@]31CCN(C)C2", "note": "[galantamine lactate]", "values": [
      {"measurement": "solubility in water", "setting": "[1]", "result": "~1390", "unit": "mM"}
    ]},
    {"molecule": "COc1ccc2c3c1O[C@H]1C[C@@H](O)C=C[C@@]31CCN(C)C2", "note": "[galantamine]", "values": [
      {"measurement": "Tmax in CSF, intranasal vs oral", "setting": "[3]", "result": "same trend was observed in the CSF"},
      {"measurement": "Tmax", "setting": "[3]; inhaled or intranasal", "result": "~0.5", "unit": "h"},
      {"measurement": "Tmax", "setting": "[3]; po", "result": "2 to 3", "unit": "h"},
      {"measurement": "incidence of retching / emesis, intranasal vs oral", "setting": "ferrets", "result": "dramatic reduction in emesis"},
      {"measurement": "bioavailability", "setting": "[4]; ferret, plasma, other: intranasal compared to oral", "result": "~70", "unit": "%"},
      {"measurement": "Tmax, plasma, intranasal compared to oral", "setting": "[4]; ferrets, intranasal 200 mg/ml formulation vs Reminyl oral solution", "result": "decreased Tmax"},
      {"measurement": "Cmax, plasma, intranasal compared to oral", "setting": "[4]; ferrets, intranasal vs oral", "result": "about 4 fold"}
    ]},
    {"molecule": "CCN(C)C(=O)Oc1cccc([C@H](C)N(C)C)c1", "note": "[rivastigmine]", "values": [
      {"measurement": "rivastigmine concentration in CSF after intranasal administration", "setting": "[5]", "result": "peaks at a level higher than therapeutic levels reported for plasma following oral dosage in man"}
    ]},
    {"molecule": "Nc1c2c(nc3ccccc13)CCCC2", "note": "[tacrine]", "values": [
      {"measurement": "minimal therapeutic concentration (MTC)", "setting": "cholinesterase", "result": 3.5, "unit": "nmol/gm"}
    ]},
    {"molecule": "triton X", "values": [
      {"measurement": "effect on TER", "setting": "[6]", "result": "did reduce TER"}
    ]}
  ]
}
